The source of these data is patent US20260016473A1 (priority 2022, published 2026).

The test system of assay [1] is human serum-derived IgA. Format: biochemical.
Assay [2] addresses MERS-CoV Spike S1 (Middle East respiratory syndrome-related coronavirus, UniProt K9N5Q8). Format: biochemical.
In assay [3] the test system is α-amylase, Lactoferrin, Lysozyme, Mucin, EGF, IgA. Format: biochemical.
Assay [4] deals with T1, SARS-CoV2 Spike RBD (Severe acute respiratory syndrome coronavirus 2, UniProt P0DTC2).
T1 construct: purchased Sino Biological, Inc. 40592-V08H
Format: biochemical, SARS-CoV-2.

The target of assay [5] is SARS-CoV Spike S1 (Severe acute respiratory syndrome coronavirus, UniProt P59594). Format: biochemical.
For assay [6], the target named is T2, SARS-CoV2 Spike S2 (Severe acute respiratory syndrome coronavirus 2, UniProt P0DTC2).
T2 construct: SARS-CoV2 Spike S2 (Product number: 40590-V08H1); purchased Sino Biological, Inc. 40590-V08H1
Format: biochemical, SARS-CoV-2.

The target of assay [7] is T3, SARS-CoV2 Spike S1 (Severe acute respiratory syndrome coronavirus 2, UniProt P0DTC2).
T3 construct: SARS-CoV2 Spike S1 (Product number: 40591-V08); purchased Sino Biological, Inc. 40591-V08
Format: biochemical, SARS-CoV-2.

Sequence of MERS-CoV Spike S1 (K9N5Q8 18-751 limits assumed): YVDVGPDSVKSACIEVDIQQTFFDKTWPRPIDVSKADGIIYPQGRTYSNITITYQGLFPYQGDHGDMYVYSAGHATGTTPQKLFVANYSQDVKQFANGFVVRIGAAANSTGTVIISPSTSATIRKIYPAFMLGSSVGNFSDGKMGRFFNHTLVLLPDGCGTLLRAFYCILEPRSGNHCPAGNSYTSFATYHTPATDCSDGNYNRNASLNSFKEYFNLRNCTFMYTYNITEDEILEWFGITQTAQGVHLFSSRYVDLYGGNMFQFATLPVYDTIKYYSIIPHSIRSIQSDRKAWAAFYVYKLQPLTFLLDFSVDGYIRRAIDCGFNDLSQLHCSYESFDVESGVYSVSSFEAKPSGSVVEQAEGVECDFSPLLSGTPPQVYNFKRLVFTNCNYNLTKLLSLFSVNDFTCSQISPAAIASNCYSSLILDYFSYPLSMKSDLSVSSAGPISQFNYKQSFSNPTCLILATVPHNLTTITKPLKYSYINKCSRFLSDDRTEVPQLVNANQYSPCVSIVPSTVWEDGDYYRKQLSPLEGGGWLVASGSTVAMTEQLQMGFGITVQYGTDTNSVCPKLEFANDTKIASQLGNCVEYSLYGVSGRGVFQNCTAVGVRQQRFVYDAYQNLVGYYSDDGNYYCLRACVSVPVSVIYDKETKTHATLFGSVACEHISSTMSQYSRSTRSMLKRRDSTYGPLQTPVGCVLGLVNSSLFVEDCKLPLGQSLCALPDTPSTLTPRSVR

Turning to `CCC(C)c1nc2c(CCCNC(=N)N)[nH]c(-c3c[nH]c4ccccc34)cn-2c1=O` (centres unmarked) [Cypridina Luciferin], in assay [1], the “luminescent reaction with immunoglobulin protein IgA” value is reported as “did not cause a luminescent reaction”. Moreover, the “reaction with the protein of MERS-CoV” value in assay [2] is listed as “did not react”. Moreover, the “luminescent reaction with various proteins” value in assay [3] is given as “did not cause a luminescent reaction”. Further, the “luminescent reaction at the RBD domain” value in assay [4] is recorded as “did not cause a reaction at the PBD domain at all”. In addition, the “reaction with spike protein of SARS-CoV” value in assay [5] was “reacted”. For the same compound, the “luminescent reaction at S2” value in assay [6] is recorded as “caused a luminescent reaction”. In assay [7], the “luminescent reaction at S1” value is “caused a luminescent reaction” and the “reaction with spike protein of SARS-CoV-2” value is given as “reacted”.
